Like-named read-outs stand apart in the source and are kept apart here.
Test system: weeds
Test: Actual control effects and combined effects of mixtures of active ingredients (i) and (ii), stem-leaf treatment, Gowing method
Type: in vivo
Details: 20 days
Procedure: According to the actual control effect and the property of the herbicides, the balance of the formula and other factors, the optimal ratio was determined. In the calculation formula: X represents the fresh weight inhibition rate when the active ingredient (i) is used in an amount of P; and Y represents the fresh weight inhibition rate when the active ingredient (ii) is used in an amount of Q. The statistical results are shown in Tables 9-11 below.

[1] = 480 h, Echinochloa phyllopogon, (ii) 3 g a.i./mu, stem-leaf treatment, read-out: Control effect of (ii) alone at corresponding dose
[2] = 480 h, Echinochloa phyllopogon, (ii) 15 g a.i./mu, read-out: Control effect of (ii) alone at corresponding dose
[3] = Echinochloa phyllopogon, (ii) 3 g a.i./mu
[4] = Monochoria vaginalis, (ii) 3 g a.i./mu
[5] = Monochoria vaginalis, (ii) 3 g a.i./mu, stem-leaf treatment
[6] = Leptochloa chinensis, (ii) 3 g a.i./mu
[7] = 480 h, Echinochloa phyllopogon, (ii) 15 g a.i./mu, stem-leaf treatment, read-out: Control effect of (ii) alone at corresponding dose
[8] = Echinochloa phyllopogon, (ii) 15 g a.i./mu
[9] = Monochoria vaginalis, (ii) 5 g a.i./mu
[10] = Cyperus difformis, (ii) 3 g a.i./mu
[11] = Leptochloa chinensis, (ii) 15 g a.i./mu
[12] = 480 h, Echinochloa phyllopogon, (ii) 30 g a.i./mu, read-out: Control effect of (ii) alone at corresponding dose
[13] = Echinochloa phyllopogon, (ii) 0.6 g a.i./mu
[14] = Pontederia vaginalis, 480 h, Monochoria vaginalis, (ii) 3 g a.i./mu, stem-leaf treatment, read-out: Control effect of (ii) alone at corresponding dose
[15] = Pontederia vaginalis, 480 h, Monochoria vaginalis, (ii) 5 g a.i./mu, stem-leaf treatment, read-out: Control effect of (ii) alone at corresponding dose
[16] = Echinochloa phyllopogon, (ii) 3 g a.i./mu, stem-leaf treatment

Cc1ccccc1CO[C@@H]1C[C@@]2(C(C)C)CC[C@]1(C)O2 (racemic) [Cinmethylin]
pest or weed control at 45 g/ha [1]: 13.2% | pest or weed control at […] [2]: 54.5% | Control effect of (ii) alone at corresponding dose [3]: 13.2%

O=C(O)CCCOc1ccc(Cl)cc1Cl [2,4-D butyric acid]
Control effect of (ii) alone at corresponding dose [4]: 23.5% | Control effect of (ii) alone at corresponding dose [5]: 23.5% | Control effect of (ii) alone at corresponding dose (Monochoria vaginalis, (ii) 15 g a.i./mu): 65.3% | Control effect of (ii) alone at corresponding dose (Monochoria vaginalis, (ii) 15 g a.i./mu, stem-leaf treatment): 65.3%

CC(C)c1nn(C(=O)NC(C)(C)C)c(=O)n1N [Amicarbazone]
Control effect of (ii) alone at corresponding dose [4]: 23.3% | Control effect of (ii) alone at corresponding dose [5]: 23.3% | Control effect of (ii) alone at corresponding dose (Monochoria vaginalis, (ii) 10 g a.i./mu): 51.6% | Control effect of (ii) alone at corresponding dose (Monochoria vaginalis, (ii) 10 g a.i./mu, stem-leaf treatment): 51.6%

COP(=S)(OC)SCC(=O)N(c1ccc(Cl)cc1)C(C)(C)C [Anilofos]
pest or weed control at 45 g/ha (Dinebra chinensis, 480 h, Leptochloa chinensis, (ii) 3 g a.i./mu, stem-leaf treatment, read-out: Control effect of (ii) alone at corresponding dose): 30.8% | pest or weed control at 450 g/ha (Dinebra chinensis, 480 h, Leptochloa chinensis, (ii) 30 g a.i./mu, read-out: Control effect of (ii) alone at corresponding dose): 62.6% | Control effect of (ii) alone at corresponding dose [6]: 30.8%

CCNc1nc(Cl)nc(NC(C)C)n1 [Atrazine]
pest or weed control at 9 g/ha (480 h, Echinochloa phyllopogon, (ii) 0.6 g a.i./mu, read-out: Control effect of (ii) alone at corresponding dose): 2.3% | pest or weed control at […] [7]: 30.6% | Control effect of (ii) alone at corresponding dose [8]: 30.6%

CCC(Oc1ccc(F)c(C(F)(F)F)c1)C(=O)NCc1ccccc1 (stereo not drawn) [Beflubutamid]
Control effect of (ii) alone at corresponding dose (Monochoria vaginalis, (ii) 1.5 g a.i./mu): 15.3% | Control effect of (ii) alone at corresponding dose [9]: 40.3% | Control effect of (ii) alone at corresponding dose (Monochoria vaginalis, (ii) 5 g a.i./mu, stem-leaf treatment): 40.3%

CC(C)N1C(=O)c2ccccc2NS1(=O)=O [Bentazone]
pest or weed control at 27 g/ha (480 h, Cyperus difformis, (ii) 1.8 g a.i./mu, read-out: Control effect of (ii) alone at corresponding dose): 18.2% | pest or weed control at 135 g/ha (480 h, Cyperus difformis, (ii) 9 g a.i./mu, stem-leaf treatment, read-out: Control effect of (ii) alone at corresponding dose): 40.4% | Control effect of (ii) alone at corresponding dose (Cyperus difformis, (ii) 9 g a.i./mu): 40.4%

CCN(CC)C(=O)SCc1ccc(Cl)cc1 [Benthiocarb]
Control effect of (ii) alone at corresponding dose [10]: 15.2% | Control effect of (ii) alone at corresponding dose (Cyperus difformis, (ii) 3 g a.i./mu, stem-leaf treatment): 15.2% | Control effect of (ii) alone at corresponding dose (Cyperus difformis, (ii) 30 g a.i./mu): 50.3%

CS(=O)(=O)c1ccc(C(=O)C2=C(Sc3ccccc3)C3CCC(C3)C2=O)c(Cl)c1 (stereo not drawn) [Benzobicylon]
Control effect of (ii) alone at corresponding dose [6]: 26.8% | Control effect of (ii) alone at corresponding dose (Leptochloa chinensis, (ii) 3 g a.i./mu, stem-leaf treatment): 26.8% | Control effect of (ii) alone at corresponding dose [11]: 68.2% | Control effect of (ii) alone at corresponding dose (Leptochloa chinensis, (ii) 15 g a.i./mu, stem-leaf treatment): 68.2%

COc1cc(OC)nc(Oc2cccc(Oc3nc(OC)cc(OC)n3)c2C(=O)O)n1 [Bispyribac-sodium]
pest or weed control at 9 g/ha (480 h, Cyperus difformis, (ii) 0.6 g a.i./mu, read-out: Control effect of (ii) alone at corresponding dose): 39.5% | pest or weed control at 15 g/ha (480 h, Cyperus difformis, (ii) 1 g a.i./mu, stem-leaf treatment, read-out: Control effect of (ii) alone at corresponding dose): 70.4% | Control effect of (ii) alone at corresponding dose (Cyperus difformis, (ii) 1 g a.i./mu): 70.4%

CCC(C)n1c(=O)[nH]c(C)c(Br)c1=O (stereo not drawn) [Bromacil]
pest or weed control at 45 g/ha [1]: 12.8% | pest or weed control at 450 g/ha [12]: 59.7% | Control effect of (ii) alone at corresponding dose [3]: 12.8%

CCCCCCCC(=O)Oc1c(Br)cc(C#N)cc1Br [Bromoxynil octanoate]
pest or weed control at 9 g/ha (480 h, Sagittaria trifolia L., (ii) 0.6 g a.i./mu, read-out: Control effect of (ii) alone at corresponding dose): 6.4% | pest or weed control at 45 g/ha (480 h, Sagittaria trifolia, (ii) 3 g a.i./mu, stem-leaf treatment, read-out: Control effect of (ii) alone at corresponding dose): 12.5% | Control effect of (ii) alone at corresponding dose (Sagittaria trifolia L., (ii) 3 g a.i./mu): 12.5%

CCCCOCN(C(=O)CCl)c1c(CC)cccc1CC [Butachlor]
pest or weed control at […] [7]: 19.3% | pest or weed control at 450 g/ha [12]: 39.7% | Control effect of (ii) alone at corresponding dose [8]: 19.3%

CCC(C)Nc1c([N+](=O)[O-])cc(C(C)(C)C)cc1[N+](=O)[O-] (stereo not drawn) [Butralin]
pest or weed control at 45 g/ha (480 h, Cyperus difformis, (ii) 3 g a.i./mu, stem-leaf treatment, read-out: Control effect of (ii) alone at corresponding dose): 16.4% | pest or weed control at 450 g/ha (480 h, Cyperus difformis, (ii) 30 g a.i./mu, read-out: Control effect of (ii) alone at corresponding dose): 46.8% | Control effect of (ii) alone at corresponding dose [10]: 16.4%

CCOC(=O)C(Cl)Cc1cc(-n2nc(C)n(C(F)F)c2=O)c(F)cc1Cl (stereo not drawn) [Carfentrazone-ethyl]
pest or weed control at 3 g/ha (480 h, Echinochloa phyllopogon, (ii) 0.2 g a.i./mu, stem-leaf treatment, read-out: Control effect of (ii) alone at corresponding dose): 5.3% | pest or weed control at 120 g/ha (480 h, Echinochloa phyllopogon, (ii) 8 g a.i./mu, stem-leaf treatment, read-out: Control effect of (ii) alone at corresponding dose): 73.6% | Control effect of (ii) alone at corresponding dose (Echinochloa phyllopogon, (ii) 0.2 g a.i./mu): 5.3% | Control effect of (ii) alone at corresponding dose (Echinochloa phyllopogon, (ii) 8 g a.i./mu): 73.6%

Cc1ccc(NC(=O)N(C)C)cc1Cl [Chlortoluron]
pest or weed control at 9 g/ha (480 h, Echinochloa phyllopogon, (ii) 0.6 g a.i./mu, stem-leaf treatment, read-out: Control effect of (ii) alone at corresponding dose): 18.3% | pest or weed control at […] [7]: 57.6% | Control effect of (ii) alone at corresponding dose [13]: 18.3% | Control effect of (ii) alone at corresponding dose [8]: 57.6%

CC1(C)CON(Cc2ccccc2Cl)C1=O [Clomazone]
pest or weed control at 45 g/ha (Dinebra chinensis, 480 h, Leptochloa chinensis, (ii) 3 g a.i./mu, read-out: Control effect of (ii) alone at corresponding dose): 16.8% | pest or weed control at […] (Dinebra chinensis, 480 h, Leptochloa chinensis, (ii) 15 g a.i./mu, stem-leaf treatment, read-out: Control effect of (ii) alone at corresponding dose): 53.6% | Control effect of (ii) alone at corresponding dose [11]: 53.6%

O=C(O)c1nc(Cl)ccc1Cl [Clopyralid]
Control effect of (ii) alone at corresponding dose (Monochoria vaginalis, (ii) 1 g a.i./mu): 49.6% | pest or weed control at 15 g/ha (Pontederia vaginalis, 480 h, Monochoria vaginalis, (ii) 1 g a.i./mu, stem-leaf treatment, read-out: Control effect of (ii) alone at corresponding dose): 49.6% | pest or weed control at 18 g/ha (Pontederia vaginalis, 480 h, Monochoria vaginalis, (ii) 1.2 g a.i./mu, read-out: Control effect of (ii) alone at corresponding dose): 56.3%

CCCCOC(=O)[C@@H](C)Oc1ccc(Oc2ccc(C#N)cc2F)cc1 [Cyhalofop-butyl]
pest or weed control at 45 g/ha [1]: 12.2% | pest or weed control at […] [2]: 45.1% | Control effect of (ii) alone at corresponding dose [3]: 12.2%

COc1c(Cl)ccc(Cl)c1C(=O)O [Dicamba]
Control effect of (ii) alone at corresponding dose [4]: 50.9% | Control effect of (ii) alone at corresponding dose [9]: 70.2% | pest or weed control at 45 g/ha [14]: 50.9% | pest or weed control at 75 g/ha [15]: 70.2%

CCN(C(=O)n1nnn(-c2ccccc2Cl)c1=O)C1CCCCC1 [Fentrazamide]
Control effect of (ii) alone at corresponding dose [4]: 30.2% | pest or weed control at […] (Pontederia vaginalis, 480 h, Monochoria vaginalis, (ii) 1.5 g a.i./mu, read-out: Control effect of (ii) alone at corresponding dose): 18.3% | pest or weed control at 45 g/ha [14]: 30.2%

COc1c(Cl)ccc(-c2nc(C(=O)OCc3ccccc3)c(Cl)c(N)c2F)c1F [Florpyrauxifen-benzyl]
Control effect of (ii) alone at corresponding dose [13]: 21.5% | Control effect of (ii) alone at corresponding dose (Echinochloa phyllopogon, (ii) 0.6 g a.i./mu, stem-leaf treatment): 21.5% | Control effect of (ii) alone at corresponding dose [3]: 70.5% | Control effect of (ii) alone at corresponding dose [16]: 70.5%

O=C1C(Cl)C(CCl)CN1c1cccc(C(F)(F)F)c1 (stereo not drawn) [Fluorochloridone]
Control effect of (ii) alone at corresponding dose [3]: 9.1% | Control effect of (ii) alone at corresponding dose [16]: 9.1% | Control effect of (ii) alone at corresponding dose (Echinochloa phyllopogon, (ii) 30 g a.i./mu): 52.3%

Nc1c(Cl)c(F)nc(OCC(=O)O)c1Cl [Fluroxypyr]
Control effect of (ii) alone at corresponding dose [4]: 60.3% | pest or weed control at 45 g/ha [14]: 60.3% | pest or weed control at 60 g/ha (Pontederia vaginalis, 480 h, Monochoria vaginalis, (ii) 4 g a.i./mu, read-out: Control effect of (ii) alone at corresponding dose): 70.4% | pest or weed control at 75 g/ha [15]: 73.4%

Cn1[nH]c(C2CC2)c(C(=O)c2ccc(C(F)(F)F)c(N3CCCCC3=O)c2Cl)c1=O [Huanbifucaotong]
Control effect of (ii) alone at corresponding dose (Digitaria sanguinalis, (ii) 3 g a.i./mu, stem-leaf treatment): 6.2% | Control effect of (ii) alone at corresponding dose (Leptochloa chinensis, (ii) 0.5 g a.i./mu): 9.2% | Control effect of (ii) alone at corresponding dose (Leptochloa chinensis, (ii) 0.5 g a.i./mu, stem-leaf treatment): 9.2% | Control effect of (ii) alone at corresponding dose [11]: 76.2%

Reference: patent publication US20230041563A1, “N-(1,3,4-OXADIAZOL-2-YL)ARYLCARBOXAMIDES OR SALTS THEREOF, PREPARATION METHODS, HERBICIDAL COMPOSITIONS AND USES THEREOF” (priority 2018, published 2023)
